# Data reported in patent US7307166B1, “Oxpurine nucleosides and their congeners, and acyl, derivatives thereof, for improvement of hematopoiesis” (Wellstat Therapeutics Corporation, priority 1987, dated 2007).
# Legend:
# [1] = test system: normal mouse bone marrow cells; assay: Proliferation of bone marrow cells in long-term culture; format: cell-based; conditions: 10 micrograms per ml
# Experimental: Bone marrow cells from the femurs of B6D2F1 mice were used to establish long-term marrow cultures. After four weeks, when the stromal layer was confluent, the culture was treated with microphenolic acid in order to remove all cells from the stroma. New normal bone marrow cells (1×10^5/ml) from the same source were then used to “recharge” the stromal layer. Palmitoyldeoxyguanosine was added to half of the cultures at a concentration of 10 micrograms per ml. […] On days 4 and 7 cells from the culture were removed, washed, and replated in methylcellulose. The number of granulo-monocytic colonies was counted one week later.
# female Balb/C mice [2] = assay: Cisplatin-induced myelosuppression; format: in vivo, mouse; conditions: for survival: day 11
# Experimental: A study was conducted to assess the effects of N^2,3′,5′-tripalmitoyldeoxyguanosine (PdG) in reducing the hematologic toxicity of cisplatin. Female Balb/C mice were divided into groups of five animals each per dose per time point. Half of the groups were given a series of three daily doses of PdG (25 mg/kg) by intraperitoneal injection and the other half were treated with the vehicle alone. Twenty-four hours later, the animals were given a single dose of cisplatin by intraperitoneal injection at one of four doses: 8, 11, 12 or 15 mg/kg. Blood samples were taken by retro-orbital eye bleed at four, seven and 11 days after administration of cisplatin.
# male CDF8F1 mice = assay: Doxorubicin-induced myelosuppression; format: in vivo, mouse
# Experimental: Doxorubicin (Adriamycin) is a widely-used anticancer agent effective against breast carcinoma, sarcomas, small-cell lung cancer, ovarian cancer, thyroid cancer, Hodgkin's Disease and non-Hodgkins lymphoma. Its clinical application is limited by its cardiac and hematologic toxicities. A study was conducted to assess the effect of N^2 3′,5′-tripalmitoyldeoxyguanosine (PdG) in reducing the hematologic toxicity of doxorubicin. Eighty male CDF8F1 mice were divided into three groups. One group received no treatment and served as basal control animals. Animals in the other two groups were each given a single dose of doxorubicin at a dose of 11 mg/kg by intraperitoneal injection. Beginning 24 hours later, animals in the two groups received three daily doses by intraperitoneal injection of either PdG or vehicle only. Blood samples were obtained by retro-orbital eye bleed just prior to administration of doxorubicin and then 4, 8, 11 and 14 days thereafter. Complete blood cell counts with differential were determined.
# female Balb/C mice [3] = assay: Survival after bacterial endotoxin (salmonella typhimurium LPS); format: in vivo, mouse; conditions: 21-day observation; LPS 100 μg (5 mg/kg); 25 mg/kg i.p. daily 3 days prior
# Experimental: In an experiment to test the effect of N^2,3′,5′-tripalmitoyldeoxyguanosine (PdG) on animals challenged by endotoxin, 42 female Balb/C mice were divided into three groups of 14 animals each. Each group was given a single 100 μg dose (5 mg/kg) of salmonella typhimurium LPS. Two of the groups were treated once per day for three days prior to receiving the LPS by intraperitoneal injection with either 25 mg/kg PdG or with vehicle alone. The third group received no pretreatment. Survival of the animals was monitored for 21 days subsequent to the LPS dose.
# bone marrow cells = assay: Colony forming units in bone marrow of mice recovering from cyclophosphamide; format: in vivo, mouse
# Experimental: Seventy-two Balb/C female mice weighing approximately 20-grams each were given cyclophosphamide (275 mg/kg) by intraperitoneal (i.p.) injection. Twenty-four hours later and each day thereafter, mice received a 0.4 ml i.p. injection of either physiological saline (control) or palmitoylguanosine (2.5 μmoles/mouse/day in 0.2% Tween 80). On days 3, 5, 7, and 10 following CP administration 6 animals from each group were sacrificed by cervical dislocation, and the left femur of each animal obtained by sterile means. The bone marrow cells were then flushed from the femurs with McCoy's 5a Modified medium using a 23-gauge needle. Cells from femurs in the same group were pooled, dispersed by briefly vortexing, and counted using a hemocytometer. Cell suspensions were added to McCoy's Modified 5a medium containing 15% bovine calf serum, 1× Kanamycin, 0.3% agar, and 3% endotoxin-stimulated serum. […] Each group was plated in quintuplicate. After 7 days in culture (at 37° in 5% CO2 and humidified air) aggregates of 50 cells or more (“colonies”) were counted using a dissecting microscope at 25×.
# [4] = day 4 after cisplatin 8 mg/kg, PdG 25 mg/kg x3 before
# [5] = day 4 after cisplatin 11 mg/kg, PdG 25 mg/kg x3 before
# [6] = day 4 after cisplatin 12 mg/kg, PdG 25 mg/kg x3 before
# [7] = day 4 after cisplatin 15 mg/kg, PdG 25 mg/kg x3 before
# [8] = day 7 after cisplatin 8 mg/kg, PdG 25 mg/kg x3 before
# [9] = day 7 after cisplatin 11 mg/kg, PdG 25 mg/kg x3 before
# [10] = day 7 after cisplatin 12 mg/kg, PdG 25 mg/kg x3 before
# [11] = day 7 after cisplatin 15 mg/kg, PdG 25 mg/kg x3 before
# [12] = day 11 after cisplatin 8 mg/kg, PdG 25 mg/kg x3 before
# [13] = day 11 after cisplatin 11 mg/kg, PdG 25 mg/kg x3 before
# [14] = day 11 after cisplatin 12 mg/kg, PdG 25 mg/kg x3 before
# [15] = day 11 after cisplatin 15 mg/kg, PdG 25 mg/kg x3 before
# [16] = Day 4 after doxorubicin 11 mg/kg
# [17] = Day 8 after doxorubicin 11 mg/kg
# [18] = Day 14 after doxorubicin 11 mg/kg
smiles,measurement,setting,value
"CCCCCCCCCCCCCCCC(=O)Nc1nc2c(ncn2[C@H]2C[C@H](OC(=O)CCCCCCCCCCCCCCC)[C@@H](COC(=O)CCCCCCCCCCCCCCC)O2)c(=O)[nH]1 [PdG, 3′,5′-O-N^2-tripalmitoyl-2′-deoxyguanosine]",Cells,[1]; day 1,1.9 ± .13 10^6/flask
same,Cells,[1]; day 3,2.9 ± .10 10^6/flask
same,CFU-GM/flask,[1]; day 4,5123 ± 561
same,Cells,[1]; day 5,7.7 ± .2 10^6/flask
same,CFU-GM/flask,[1]; day 7,33903 ± 9457
same,Cells,[1]; day 7,4.3 ± .15 10^6/flask
same,effect on red blood cells,female Balb/C mice [2]; any time point,no effect
same,WBC,"female Balb/C mice [2]; day 4 after cisplatin 8 mg/kg, PdG 25 mg/kg i.p. 3 daily doses before",10.2 ± 1.4 K/μL
same,Lymphocytes,female Balb/C mice [2]; [4],8.0 ± 0.9 K/μL
same,Neutrophils,female Balb/C mice [2]; [4],1.77 ± 0.3 K/μL
same,Lymphocytes,female Balb/C mice [2]; [5],7.9 ± 1.1 K/μL
same,Neutrophils,female Balb/C mice [2]; [5],3.99 ± 0.7 K/μL
same,WBC,female Balb/C mice [2]; [5],7.2 ± 0.6 K/μL
same,Lymphocytes,female Balb/C mice [2]; [6],5.14 ± 1.0 K/μL
same,Neutrophils,female Balb/C mice [2]; [6],1.59 ± 0.3 K/μL
same,WBC,female Balb/C mice [2]; [6],6.9 ± 0.9 K/μL
same,Lymphocytes,female Balb/C mice [2]; [7],4.37 ± 0.61 K/μL
same,Neutrophils,female Balb/C mice [2]; [7],2.69 ± 1.3 K/μL
same,WBC,female Balb/C mice [2]; [7],7.1 ± 1.0 K/μL
same,Lymphocytes,female Balb/C mice [2]; [8],5.38 ± 0.71 K/μL
same,Neutrophils,female Balb/C mice [2]; [8],2.74 ± 0.50 K/μL
same,Platelets,female Balb/C mice [2]; [8],910 ± 135 K/μL
same,Lymphocytes,female Balb/C mice [2]; [9],5.44 ± 0.22 K/μL
same,Neutrophils,female Balb/C mice [2]; [9],4.58 ± 0.3 K/μL
same,Platelets,female Balb/C mice [2]; [9],974 ± 49 K/μL
same,WBC,female Balb/C mice [2]; [9],9.4 ± 0.83 K/μL
same,Lymphocytes,female Balb/C mice [2]; [10],5.14 ± 0.91 K/μL
same,Neutrophils,female Balb/C mice [2]; [10],3.23 ± 0.7 K/μL
same,WBC,female Balb/C mice [2]; [10],8.5 ± 0.9 K/μL
same,Lymphocytes,female Balb/C mice [2]; [11],2.80 ± 0.44 K/μL
same,Neutrophils,female Balb/C mice [2]; [11],4.06 ± 0.46 K/μL
same,WBC,female Balb/C mice [2]; [11],7.0 ± 0.38 K/μL
same,survival,female Balb/C mice [2]; 12 mg/kg cisplatin (60% of the controls had died),All
same,survival,female Balb/C mice [2]; 15 mg/kg cisplatin (all control animals dead),three of five
same,Lymphocytes,female Balb/C mice [2]; [12],7.9 ± 0.5 K/μL
same,Neutrophils,female Balb/C mice [2]; [12],1.33 ± 0.32 K/μL
same,Platelets,female Balb/C mice [2]; [12],994 ± 29 K/μL
same,WBC,female Balb/C mice [2]; [12],9.3 ± 0.3 K/μL
same,Lymphocytes,female Balb/C mice [2]; [13],7.9 ± 1.23 K/μL
same,Neutrophils,female Balb/C mice [2]; [13],1.00 ± 0.37 K/μL
same,Platelets,female Balb/C mice [2]; [13],968 ± 47 K/μL
same,WBC,female Balb/C mice [2]; [13],8.7 ± 1.0 K/μL
same,Lymphocytes,female Balb/C mice [2]; [14],5.34 ± 0.73 K/μL
same,Neutrophils,female Balb/C mice [2]; [14],3.26 ± 0.48 K/μL
same,Platelets,female Balb/C mice [2]; [14],738 ± 35 K/μL
same,WBC,female Balb/C mice [2]; [14],8.7 ± 0.6 K/μL
same,Lymphocytes,female Balb/C mice [2]; [15],7.65 ± 0.49 K/μL
same,Neutrophils,female Balb/C mice [2]; [15],2.02 ± 0.68 K/μL
same,Platelets,female Balb/C mice [2]; [15],657 ± 113 K/μL
same,WBC,female Balb/C mice [2]; [15],9.7 ± 0.3 K/μL
same,platelet counts higher than in vehicle-treated control animals,"female Balb/C mice [2]; day four, cisplatin 8 mg/kg",approximately 30%
same,Lymphocytes,male CDF8F1 mice; [16],8.07 ± 1.21 K/μL
same,Neutrophils,male CDF8F1 mice; [16],4.35 ± 0.73 K/μL
same,WBC,"male CDF8F1 mice; Day 4 after doxorubicin 11 mg/kg i.p., PdG 3 daily i.p. doses from 24 h after",13.2 ± 1.59 K/μL
same,Lymphocytes,male CDF8F1 mice; [17],1.63 ± 0.13 K/μL
same,Neutrophils,male CDF8F1 mice; [17],2.47 ± 0.28 K/μL
same,WBC,male CDF8F1 mice; [17],4.57 ± 0.35 K/μL
same,WBC,male CDF8F1 mice; Day 11 after doxorubicin 11 mg/kg,3.95 ± 0.42 K/μL
same,Lymphocytes,male CDF8F1 mice; [18],2.0 ± 0.15 K/μL
same,Neutrophils,male CDF8F1 mice; [18],2.3 ± 0.26 K/μL
same,WBC,male CDF8F1 mice; [18],5.0 ± 0.39 K/μL
same,survival,female Balb/C mice [3],All
CCCCCCCCCCCCCCCC(=O)OC[C@H]1O[C@@H](n2cnc3c(=O)[nH]c(N)nc32)[C@H](O)[C@@H]1O,colony-forming units per femur,"bone marrow cells; Day 3 after CP, 2.5 μmoles/mouse/day in 0.2% Tween 80 i.p.",645 ± 26
same,colony-forming units per femur,"bone marrow cells; Day 5 after CP, 2.5 μmoles/mouse/day",2327 ± 121
same,colony-forming units per femur,"bone marrow cells; Day 7 after CP, 2.5 μmoles/mouse/day",1328 ± 140
same,colony-forming units per femur,"bone marrow cells; Day 10 after CP, 2.5 μmoles/mouse/day",647 ± 25
